What was measured:
NF-κB = NF-κB production inhibitory activity, luciferase reporter gene assay; assay type: cell-based; settings: 3×κBTK-Luc reporter, 2 h preincubation, TNF-α (20 ng/ml) for 6 hours; FIGS. 1(A), 1(B)
Description: A) NF-κB Production Inhibitory Activity
The NF-κB production inhibitory activity was measured by luciferase reporter gene assay as shown below.
[Luciferase Reporter Gene Assay]
A reporter using luciferase DNA was prepared and the NF-κB production inhibitory activity was measured by use of promoter/reporter assay.
As the plasmid for luciferase assay, 3×κBTK-Luc (endowed by Dr. Junichiro INOUE of The Institute of Medical Science, The University of Tokyo) obtained by coupling luciferase gene derived from lampyrid to 3×κB derived from Igκ gene and HSV-TK promoter was used. Further, for the β-galactosidase assay, a plasmid obtained by coupling β-galactosidase gene to β-actin promoter (endowed by Dr. Junichiro INOUE of The Institute of Medical Science, The University of Tokyo) was used.
2) Transfection and Luciferase Assay
Transfection was performed by a DEAE-dextran method. […]
For 10 μl of the sample, 100 μl of a luminescent substrate solution (Tricine (20 mM), (MgCO3).4Mg(OH)2.5H2O (1.07 mM), MgSO4 (2.67 mM), EDTA (0.1 mM), DTT (33.3 mM), Coenzyme A (270 μM), luciferin (470 μM), and ATP (530 μM)) was added and amount of luminescence was quantitated by use of Lumat LB9501 (Berthold: Bad Wildbad, Germany). Further, the measured amounts were corrected by β-galactosidase assay to obtain the value of luciferase activity. […]

[1] = tested on: collagen-induced arthritis; assay: Collagen-induced arthritis preventing effect; assay type: in vivo, mouse; settings: mice, intraperitoneal 2 mg/kg or 4 mg/kg, 3 times/week, 18 times/6 weeks; FIGS. 2(A), 2(B)
Description: B) Collagen-induced Arthritis Preventing Effect
Type II collagen was emulsified together with an equivalent volume of Freund's complete adjuvant to prepare 1.5 mg/ml of administration solution. This was intradermally inoculated to the radicular portion of mouse tail in an amount of 0.1 ml (150 μg/mouse) to sensitize the mouse. After 3 weeks, 0.1 ml of type II collagen emulsified in the same operational manner as described was intraperitoneally administered to mouse (150 μg/mouse) to effect booster immunization to induce arthritis.
6 Animals/group of mice were intraperitoneally administered with DHM2EQ and DHM3EQ in a dosage of 2 mg/kg or 4 mg/kg 3 times/week from the day of initial immunization in a ratio of 0.1 ml/10 g of the bodyweight, in total 18 times/6 weeks. The control group (6 animals/group) was administered with 0.5% CMC solution in the same schedule as described above and to provide normal group (4 animals/group) in which no collagen arthritis was induced. The effect of inhibiting collagen-induced arthritis was evaluated by degrees of the flare, swelling and stiffening of anterior limb and posterior limb in scores of 0 to 4 (the maximum score of total for 4 limbs was 16).

Structure (SMILES)	concentration at which NF-κB activity was inhibited (NF-κB) [µg/mL]	inhibition of collagen-induced arthritis (score of flare, swelling, stiffening of 4 limbs) [1]
O=C(NC1=CC(O)C2OC2C1=O)c1ccccc1O (stereo not shown) [DHM3EQ, 5,6-epoxy-4-hydroxy-2-salicyloylamino-2-cyclohexenone]	10	inhibited collagen-induced arthritis
O=C(NC1=CC(=O)C2OC2C1O)c1ccccc1O (stereo not shown) [DHM2EQ, 5,6-epoxy-4-hydroxy-3-salicyloylamino-2-cyclohexenone]	≥ 1	inhibited collagen-induced arthritis

— patent US6566394B1, “Salicylamide derivatives” (Mercian Corporation, priority 1999, dated 2003)
